The values that follow come from ChEMBL document CHEMBL5352492, “Application of deep generative model for design of Pyrrolo[2,3-d] pyrimidine derivatives as new selective TANK binding kinase 1 (TBK1) inhibitors” (Eur J Med Chem, 2023).

Usually inhibition stands for the percentage by which the read-out fell short of the control. For orientation: IC50 means the midpoint of a concentration-inhibition curve.

For test [1], the target named is Macrophage-stimulating protein receptor (Homo sapiens) (UniProt Q04912). In words: Inhibition of RON (unknown origin) at 100 to 1000 nM relative to control. The following applies: dose 100-1000 nM.
Sequence of Macrophage-stimulating protein receptor (Homo sapiens) (Q04912 25-304 limits assumed): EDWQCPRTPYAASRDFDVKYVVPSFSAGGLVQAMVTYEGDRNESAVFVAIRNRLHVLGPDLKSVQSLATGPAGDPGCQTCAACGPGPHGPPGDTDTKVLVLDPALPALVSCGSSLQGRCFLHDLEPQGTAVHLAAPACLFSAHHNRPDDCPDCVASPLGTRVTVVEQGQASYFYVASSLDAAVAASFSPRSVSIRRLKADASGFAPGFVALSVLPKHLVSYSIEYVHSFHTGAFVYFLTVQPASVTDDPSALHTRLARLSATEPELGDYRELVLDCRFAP
Sequence of Macrophage-stimulating protein receptor (Homo sapiens) (Q04912 310-1400 limits assumed): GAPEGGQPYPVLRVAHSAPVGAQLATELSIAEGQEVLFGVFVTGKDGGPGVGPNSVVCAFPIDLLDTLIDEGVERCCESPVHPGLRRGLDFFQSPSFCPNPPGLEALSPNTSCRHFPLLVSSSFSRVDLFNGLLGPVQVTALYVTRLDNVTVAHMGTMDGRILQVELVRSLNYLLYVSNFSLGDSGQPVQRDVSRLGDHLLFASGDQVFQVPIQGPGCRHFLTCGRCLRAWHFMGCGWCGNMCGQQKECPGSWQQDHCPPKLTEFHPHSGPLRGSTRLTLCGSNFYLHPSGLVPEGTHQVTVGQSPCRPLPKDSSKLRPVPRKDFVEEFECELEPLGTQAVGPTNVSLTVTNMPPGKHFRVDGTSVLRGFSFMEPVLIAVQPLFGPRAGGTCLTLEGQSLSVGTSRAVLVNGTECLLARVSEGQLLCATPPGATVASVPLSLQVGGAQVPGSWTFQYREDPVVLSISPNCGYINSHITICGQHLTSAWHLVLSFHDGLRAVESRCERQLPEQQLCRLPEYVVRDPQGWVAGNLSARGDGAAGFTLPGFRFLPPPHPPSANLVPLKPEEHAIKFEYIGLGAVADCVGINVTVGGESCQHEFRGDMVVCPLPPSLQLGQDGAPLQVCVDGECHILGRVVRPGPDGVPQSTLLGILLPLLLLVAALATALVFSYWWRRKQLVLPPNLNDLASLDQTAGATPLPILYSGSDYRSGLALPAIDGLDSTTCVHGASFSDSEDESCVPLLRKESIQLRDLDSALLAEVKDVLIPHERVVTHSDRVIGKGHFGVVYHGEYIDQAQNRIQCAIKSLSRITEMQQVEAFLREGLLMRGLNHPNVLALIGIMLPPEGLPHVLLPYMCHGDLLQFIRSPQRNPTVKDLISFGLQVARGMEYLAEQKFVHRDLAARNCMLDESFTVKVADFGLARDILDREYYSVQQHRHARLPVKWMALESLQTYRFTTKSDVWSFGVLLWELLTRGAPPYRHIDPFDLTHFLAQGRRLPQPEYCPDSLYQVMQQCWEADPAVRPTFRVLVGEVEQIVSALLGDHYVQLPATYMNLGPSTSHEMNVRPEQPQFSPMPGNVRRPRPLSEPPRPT
Test [2] concerns the target Platelet-derived growth factor receptor alpha (Homo sapiens) (UniProt P16234). Briefly: Inhibition of PDGFR-alpha (unknown origin) at 100 to 1000 nM relative to control. The following applies: dose 100-1000 nM.
Test [3] addresses T1, Serine/threonine-protein kinase TBK1 (Homo sapiens) (UniProt Q9UHD2).
T1 sequence (whole entry): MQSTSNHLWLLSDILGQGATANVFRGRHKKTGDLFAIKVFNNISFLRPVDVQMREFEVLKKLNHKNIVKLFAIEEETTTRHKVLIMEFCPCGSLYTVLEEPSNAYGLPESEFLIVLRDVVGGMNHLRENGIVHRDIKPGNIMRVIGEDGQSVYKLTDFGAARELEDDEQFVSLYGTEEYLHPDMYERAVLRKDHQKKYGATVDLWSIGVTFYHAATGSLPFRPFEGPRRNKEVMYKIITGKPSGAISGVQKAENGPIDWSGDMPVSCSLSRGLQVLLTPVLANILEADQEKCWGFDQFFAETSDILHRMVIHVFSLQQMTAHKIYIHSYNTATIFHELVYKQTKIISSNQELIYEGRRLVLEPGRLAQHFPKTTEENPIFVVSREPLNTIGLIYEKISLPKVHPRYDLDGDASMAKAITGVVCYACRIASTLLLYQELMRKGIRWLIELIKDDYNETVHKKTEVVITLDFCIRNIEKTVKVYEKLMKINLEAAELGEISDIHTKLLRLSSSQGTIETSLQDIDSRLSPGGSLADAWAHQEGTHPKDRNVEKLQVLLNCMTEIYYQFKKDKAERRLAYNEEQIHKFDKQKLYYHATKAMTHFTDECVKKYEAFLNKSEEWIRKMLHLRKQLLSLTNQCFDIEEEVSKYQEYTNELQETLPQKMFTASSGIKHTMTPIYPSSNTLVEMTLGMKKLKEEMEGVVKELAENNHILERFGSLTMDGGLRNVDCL
In words: Inhibition of TBK1 (unknown origin) incubated at 10 nM for 1 hr in presence of ATP by FRET based Z'-Lyte assay relative to control.

Test [4] has as its target Fibroblast growth factor receptor 1 (Homo sapiens) (UniProt P11362). In words: Inhibition of FGFR1 (unknown origin) at 100 to 1000 nM relative to control. Conditions: dose 100-1000 nM.
Test [5] deals with Fibroblast growth factor receptor 2 (Homo sapiens) (UniProt P21802). Briefly: Inhibition of FGFR2 (unknown origin) at 100 to 1000 nM relative to control. The following applies: dose 100-1000 nM.
Sequence of Fibroblast growth factor receptor 2 (Homo sapiens) (P21802 22-821 limits assumed): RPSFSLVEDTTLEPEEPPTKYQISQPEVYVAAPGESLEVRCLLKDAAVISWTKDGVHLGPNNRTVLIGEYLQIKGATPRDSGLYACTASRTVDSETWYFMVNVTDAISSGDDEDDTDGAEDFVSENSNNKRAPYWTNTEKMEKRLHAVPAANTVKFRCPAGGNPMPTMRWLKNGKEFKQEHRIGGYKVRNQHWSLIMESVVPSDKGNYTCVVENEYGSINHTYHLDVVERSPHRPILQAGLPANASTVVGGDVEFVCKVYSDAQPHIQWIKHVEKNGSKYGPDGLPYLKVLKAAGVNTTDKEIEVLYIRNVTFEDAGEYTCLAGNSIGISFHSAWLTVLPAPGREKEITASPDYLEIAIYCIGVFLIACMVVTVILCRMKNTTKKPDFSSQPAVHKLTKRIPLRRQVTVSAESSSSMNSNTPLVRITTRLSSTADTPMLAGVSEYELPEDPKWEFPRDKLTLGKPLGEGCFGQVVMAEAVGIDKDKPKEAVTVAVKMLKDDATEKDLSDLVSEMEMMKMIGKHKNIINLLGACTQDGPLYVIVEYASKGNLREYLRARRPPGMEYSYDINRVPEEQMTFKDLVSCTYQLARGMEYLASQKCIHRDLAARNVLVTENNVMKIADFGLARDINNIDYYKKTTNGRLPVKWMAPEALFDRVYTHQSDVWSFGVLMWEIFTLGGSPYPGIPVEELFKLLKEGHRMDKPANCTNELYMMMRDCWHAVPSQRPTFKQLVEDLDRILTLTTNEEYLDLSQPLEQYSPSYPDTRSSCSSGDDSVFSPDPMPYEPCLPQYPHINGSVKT
In test [6] the target is T1, Serine/threonine-protein kinase TBK1 (Homo sapiens). In words: Inhibition of TBK1 phosphorylation (unknown origin) of downstream signalling effector protein S6K at 1 to 20 uM after 24 hrs by Western blotting analysis. Conditions: dose 1-20 µM. Background: A western blot detects proteins with antibodies after separation by electrophoresis.
The target of test [7] is Vascular endothelial growth factor receptor 1 (Homo sapiens) (UniProt P17948). In words: Inhibition of VEGFR1 (unknown origin) at 100 to 1000 nM relative to control. The following applies: dose 100-1000 nM.
Sequence of Vascular endothelial growth factor receptor 1 (Homo sapiens) (P17948 whole entry): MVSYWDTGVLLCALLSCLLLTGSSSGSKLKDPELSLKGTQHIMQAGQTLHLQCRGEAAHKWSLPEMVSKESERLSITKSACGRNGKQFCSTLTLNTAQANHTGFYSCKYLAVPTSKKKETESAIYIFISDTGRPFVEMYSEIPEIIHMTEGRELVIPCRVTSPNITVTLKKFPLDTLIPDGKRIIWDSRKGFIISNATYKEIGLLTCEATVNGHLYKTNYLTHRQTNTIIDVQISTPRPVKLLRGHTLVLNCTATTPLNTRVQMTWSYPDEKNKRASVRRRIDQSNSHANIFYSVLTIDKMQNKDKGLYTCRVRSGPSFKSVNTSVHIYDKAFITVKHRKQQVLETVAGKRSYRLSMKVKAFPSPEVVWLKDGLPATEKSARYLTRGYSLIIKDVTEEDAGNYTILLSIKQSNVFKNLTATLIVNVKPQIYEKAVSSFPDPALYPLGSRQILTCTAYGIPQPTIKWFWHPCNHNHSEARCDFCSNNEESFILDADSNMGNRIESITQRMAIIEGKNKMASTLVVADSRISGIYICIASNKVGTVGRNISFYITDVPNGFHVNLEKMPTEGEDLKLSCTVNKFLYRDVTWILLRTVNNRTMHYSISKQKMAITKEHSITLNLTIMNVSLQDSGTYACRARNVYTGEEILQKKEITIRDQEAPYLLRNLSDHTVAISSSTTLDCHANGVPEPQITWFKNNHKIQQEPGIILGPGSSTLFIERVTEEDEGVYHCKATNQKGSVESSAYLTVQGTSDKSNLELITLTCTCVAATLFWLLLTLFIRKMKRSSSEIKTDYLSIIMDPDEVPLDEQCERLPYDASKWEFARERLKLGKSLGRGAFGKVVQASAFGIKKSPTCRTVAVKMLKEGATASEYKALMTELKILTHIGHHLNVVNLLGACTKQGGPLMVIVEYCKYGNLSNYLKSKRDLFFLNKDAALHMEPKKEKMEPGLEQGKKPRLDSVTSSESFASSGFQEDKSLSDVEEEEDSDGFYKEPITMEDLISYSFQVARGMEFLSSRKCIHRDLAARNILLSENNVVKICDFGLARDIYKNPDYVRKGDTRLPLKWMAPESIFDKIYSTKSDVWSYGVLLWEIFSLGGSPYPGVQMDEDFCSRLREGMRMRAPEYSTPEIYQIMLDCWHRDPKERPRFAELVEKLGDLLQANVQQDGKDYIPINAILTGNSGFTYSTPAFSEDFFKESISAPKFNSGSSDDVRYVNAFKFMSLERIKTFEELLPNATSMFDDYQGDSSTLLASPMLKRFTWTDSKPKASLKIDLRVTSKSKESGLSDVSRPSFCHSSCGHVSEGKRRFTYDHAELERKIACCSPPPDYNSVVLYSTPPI
For test [8], the target named is Vascular endothelial growth factor receptor 2 (Homo sapiens) (UniProt P35968). In words: Inhibition of VEGFR2 (unknown origin) at 100 to 1000 nM relative to control. Conditions: dose 100-1000 nM.
Sequence of Vascular endothelial growth factor receptor 2 (Homo sapiens) (P35968 whole entry): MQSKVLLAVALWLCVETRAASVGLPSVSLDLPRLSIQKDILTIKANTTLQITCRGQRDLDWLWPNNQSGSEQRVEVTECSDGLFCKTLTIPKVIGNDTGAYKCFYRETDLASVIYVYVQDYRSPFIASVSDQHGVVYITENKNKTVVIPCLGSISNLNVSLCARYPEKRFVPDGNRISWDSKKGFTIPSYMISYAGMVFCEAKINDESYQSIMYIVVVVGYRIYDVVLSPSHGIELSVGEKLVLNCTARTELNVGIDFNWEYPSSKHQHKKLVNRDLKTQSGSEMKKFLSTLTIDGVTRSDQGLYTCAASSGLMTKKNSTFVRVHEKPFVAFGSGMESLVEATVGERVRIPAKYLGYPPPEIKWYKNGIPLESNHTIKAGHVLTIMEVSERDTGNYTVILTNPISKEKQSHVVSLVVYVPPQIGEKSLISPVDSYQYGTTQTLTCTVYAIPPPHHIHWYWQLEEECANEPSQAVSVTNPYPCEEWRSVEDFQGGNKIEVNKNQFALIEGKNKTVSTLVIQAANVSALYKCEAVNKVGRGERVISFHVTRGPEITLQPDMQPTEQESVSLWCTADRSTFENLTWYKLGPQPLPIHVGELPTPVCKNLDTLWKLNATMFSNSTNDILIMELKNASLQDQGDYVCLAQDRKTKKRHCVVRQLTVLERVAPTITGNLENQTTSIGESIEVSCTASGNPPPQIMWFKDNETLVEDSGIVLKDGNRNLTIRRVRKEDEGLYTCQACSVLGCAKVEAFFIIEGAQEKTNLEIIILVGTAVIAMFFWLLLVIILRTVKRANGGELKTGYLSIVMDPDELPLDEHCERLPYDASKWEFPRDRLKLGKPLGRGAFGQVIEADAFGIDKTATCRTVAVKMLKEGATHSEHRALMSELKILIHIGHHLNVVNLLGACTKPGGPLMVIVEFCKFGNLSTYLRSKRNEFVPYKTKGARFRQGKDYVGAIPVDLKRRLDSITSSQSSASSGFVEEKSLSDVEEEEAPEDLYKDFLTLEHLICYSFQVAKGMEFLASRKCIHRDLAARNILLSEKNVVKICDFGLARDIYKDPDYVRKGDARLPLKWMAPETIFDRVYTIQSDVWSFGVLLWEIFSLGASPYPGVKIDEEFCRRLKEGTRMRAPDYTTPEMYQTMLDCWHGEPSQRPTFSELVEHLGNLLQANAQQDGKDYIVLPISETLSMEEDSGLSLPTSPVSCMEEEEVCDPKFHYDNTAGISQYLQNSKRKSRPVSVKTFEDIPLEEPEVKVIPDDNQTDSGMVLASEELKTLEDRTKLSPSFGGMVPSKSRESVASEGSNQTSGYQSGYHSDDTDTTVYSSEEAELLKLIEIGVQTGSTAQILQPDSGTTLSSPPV
Test [9] has as its target Insulin receptor (Homo sapiens) (UniProt P06213). In words: Inhibition of IR (unknown origin) at 100 to 1000 nM relative to control. The following applies: dose 100-1000 nM.
Test [10] addresses T2, Serine/threonine-protein kinase TBK1 (Homo sapiens, UniProt Q9UHD2).
T2 sequence (Q9UHD2 whole entry): T1 sequence (whole entry)
Briefly: Inhibition of TBK1 (unknown origin) incubated for 1 hr in presence of ATP by FRET based Z'-Lyte assay.

With `CC(=O)N1CCN(Cc2cccc(Nc3ncc4ccn(CCCNC(=O)C5CCC5)c4n3)c2)CC1`, the inhibition in test [1] is under 35%; in test [2], under 35%; in [3] it was 56.7%; in test [4] it was under 35%; in [5], under 35%; in [6] it was “Dose-Dependent Effect”. Moreover, the inhibition in [7], in test [8] and in test [9] was under 35% in each case. Further, the concentration for half-maximal inhibition (IC50) in test [10] was 22.4 nM.
